According to patent publication US8889894B2, “Compounds for use in therapy” (Bangor University, priority 2008, dated 2014):

How the values were obtained:
alveolar macrophages = assay: Foaming of mycolic acid treated alveolar macrophages (ORO-stained lung sections); format: in vivo, C57BL/6 mice; conditions: single intratracheal dose of liposomes carrying compound, a week earlier; compared with empty liposomes or liposomes containing compound 1; FIG. 2
Experimental: (§1) Briefly, the compounds were mixed with phosphatidylcholine (Sigma) in chloroform. The chloroform was evaporated and the lipids recovered in sterile saline. After ultrasound sonication and vortexing, samples of 25 μg mycolic acids/100 μl/mouse were administered intratracheally. A liposome control was prepared similarly, but without the addition of any mycolic acid compound.
Formation of cholesterol-rich foamy alveolar macrophages upon intratracheal instillation of mycolic acid containing liposomes is indicative of a possible mycolic acid induced suppression of Th2-mediated eosinophilia. In a mouse model of allergic asthma this is mediated by a mechanism involving antigen presentation by these foam cells and the activity of regulatory T-lymphocytes (Korf et al, Am. J. Respir. Crit. Care Med., 174, 1-9, 2006).
We verified the induction of cholesterol-loaded cells in the lungs of C57BL/6 mice that received a single dose of liposomes carrying compounds a week earlier. The mice were treated with empty liposomes, liposomes containing control compound 1, liposomes containing compound 2 and liposomes containing compound 4. Frozen lung sections were stained with the lipophilic Oil Red O dye (ORO) thereby visualising foam cell intracellular lipid vesicles and counterstained with haematoxylin. […]

C547BL/6 mice [1] = assay: Histo-pathological examination of lung tissue (haematoxylin and eosin, score 0-5); format: in vivo; conditions: 48 hours after intratracheal liposomes; lavaged lungs, double-blinded pathologist score; FIG. 4
Text: Lavaged lungs were ectomised to allow for histo-pathological examination of the lung tissue. A haematoxylin and eosin staining of the paraffin lung sections was followed by a thorough examination by a skilled pathologist who scored the sections according to the following criteria in a double-blinded manner:
1=a minority of the bronchi are surrounded by some infiltrated inflammatory cells
2=the majority of the bronchi are surrounded by some infiltrated inflammatory cells
3=dispersed are some heavy infiltrates of neutrophils and eosinophils
4=a lot of infiltrating neutrophils and eosinophils throughout the entire lung section
5=same as 4 with additionally signs of airway remodelling e.g. basal membrane thickening, mucus overproduction and/or smooth muscle cell hyperplasia

C547BL/6 mice [2] = assay: Inflammatory cell infiltration to the airways (BAL, flowcytometry); format: in vivo; conditions: 48 hours after intratracheal liposomes; BAL-fluid; compared to empty liposome treatment
Experimental: as §1
In order to be considered safe for therapeutic administration, compounds should preferably cause as little local inflammation or resulting tissue changes as possible.
After 48 hours, mice were sacrificed and a broncho-alveolar lavage (BAL) was performed to measure the airway cell types and numbers by flowcytometry. Increased cell numbers and the appearance of granulocytes (mainly neutrophils) in the BAL-fluid are indicative for cell recruitment to the airways as result of an inflammatory reaction.

[3] = tested on: Th2-driven allergic airway inflammation; assay: Suppression of allergic airway inflammation in a mouse asthma model (OVA/Alum immunised, OVA-aerosol challenge); format: in vivo; conditions: liposomes intratracheally to OVA/Alum immunised mice, OVA-aerosol challenge after 7 days; flowcytometry (CCR3+); vs empty liposomes; FIG. 5
Experimental: as §1
Liposome containing synthetic mycolic acids compounds 5, 6 and 7 were administered intratracheally to mice which had been immunised for the experimental allergen chicken egg ovalbumin (OVA) adjuvanted with Alum (aluminium hydroxide). Following 7 days, the mice were challenged with OVA-aerosol. Th2-driven allergic airway inflammation was apparent in empty liposomes treated animals, from high eosinophil counts in the BAL-fluid by flowcytometry (CCR3^+).

[4] = tested on: CD4+ T-helper (Th) lymphocytes; assay: mRNA expression patterns by RT-qPCR of CD4+ T-helper lymphocytes from asthmatic mouse lungs; format: in vivo; conditions: compounds in liposomes; with reference to empty liposome treatment; FIG. 7
Text: From the previous examples it can be concluded that the synthetic mycolic acids have a significant effect on immune reactivity. The nature of the immune modification appears to be structure dependent. This can be seen from examination of mRNA expression patterns by RT-qPCR of CD4+ T-helper (Th) lymphocytes, isolated from asthmatic mouse lungs after treatment with compounds 6, 8 and 9 formulated into liposomes. The results are shown in FIGS. 7a to e with reference to an empty liposome treatment. All of the synthetic mycolic acid isomers repressed the transcription of the Th2 effector cytokine IL-4 to some degree.

Structure (SMILES) | inflammatory cell infiltration to the airways (C547BL/6 mice [2]) | scores of ORO positive cells/microscopic field (alveolar macrophages) | lung tissue changes (C547BL/6 mice [1]) | also measured
CCCCCCCCCCCCCCCCCCCCCCCC[C@@H](C(=O)O)[C@H](O)CCCCCCCCCCCCCCC[C@@H]1C[C@@H]1CCCCCCCCCCCCCCCCCCC(=O)[C@@H](C)CCCCCCCCCCCCCCCCCC (single isomer, unassigned) [Example 3] |  |  |  | melting point: 66 to 68 °C
CCCCCCCCCCCCCCCCCCCCCCCC[C@@H](C(=O)O)[C@H](O)CCCCCCCCCCC[C@H]1CC1CCCCCCCCCCCCCC[C@H]1C[C@H]1CCCCCCCCCCCCCCCCCCCC (some centres unmarked) [Compound 2] |  | significantly higher scores |  | 
CCCCCCCCCCCCCCCCCCCC[C@H]1C[C@H]1CCCCCCCCCCCCCCC1C[C@H]1CCCCCCCCCCC[C@@H](O)[C@@H](CC)C(=O)O (some centres unmarked) [Compound 3] | do not |  | did not cause any significant lung tissue changes | 
CCCCCCCCCCCCCCCCCCCCCCCC[C@@H](C(=O)O)[C@H](O)CCCCCCCCCCCCCCCC[C@H]1C[C@@H]1[C@@H](C)CCCCCCCCCCCCCCCCCCC(=O)C(C)CCCCCCCCCCCCCCCCCC (some centres unmarked) [Compound 4] | do not | significantly higher scores | did not cause any significant lung tissue changes | 
CCCCCCCCCCCCCCCCCCCCCCCC[C@@H](C(=O)O)[C@H](O)CCCCCCCCCCCCCCCCC[C@@H]1CC1CCCCCCCCCCCCCCCC[C@@H](OC)[C@@H](C)CCCCCCCCCCCCCCCCCC (some centres unmarked) [Compound 6] |  |  |  | eosinophil count in the BAL-fluid [3]: at least two-fold decreased; FoxP3 (regulatory T-cell) response [4]: especially good in suppressing; Gata-3 transcription (Th2) [4]: especially good in suppressing; IL-4 transcription (Th2 effector cytokine) [4]: especially good in suppressing
